Assays:
[1] = system: A375M melanoma cell line (mutant BRAF); experiment: Assay C - SRB cell proliferation assay, A375M; type: cell-based; conditions: Homo sapiens, 120 h, 5 days growth
Method: Values for the blank (no cells) are subtracted from all values. The DMSO controls are set as 100% activity and assay points (the response) are calculated as a percentage of the DMSO control. Data are plotted using Graphpad Prism software and a non-linear regression line is calculated using a variable slope sigmoidal dose-response equation: Y=Bottom+[Top−Bottom]/[1+10^((Log EC50−X)*HillSlope)] where X is the logarithm of concentration and Y is the response). The IC50 generated by this procedure is the concentration of the drug that produces a percentage control fluorescence value midway between the saturation, and zero-effect plateaus. Three independent assays are usually performed and the mean IC50 is reported. Biological Methods—Assay C—SRB Cell Proliferation Assay (SRB GI50)
Cell lines (e.g., WM266.4 and A375M melanoma cell lines; SW620 colorectal carcinoma cell line) are routinely cultured in DMEM or RPMI1640 supplemented with 10% foetal bovine serum, at 37° C., in 10% CO2 water saturated atmosphere. Cultures are maintained in exponential growth phase by sub-culturing before having become confluent (3-5 day intervals). Single cell suspensions are prepared by harvesting an 80 cm^2 tissue culture flask with 5 mL commercial trypsin EDTA. After 5 minutes, the detached cells are mixed with 5 mL fully complemented culture medium and centrifugally pelleted (1000 rpm for 7 minutes). After aspirating the supernatant, the cell pellet is re-suspended in 10 mL fresh medium and the cells fully disaggregated by drawing the whole volume up/down 5 times through a 19-gauge needle. The concentration of the cells is determined using a haemocytometer ( 1/10 dilution). A suitable volume to give at least a 2-fold excess for the number of tests being conducted, typically 100-200 mL, is prepared by diluting the cell suspension to 10,000-40,000/mL, and 100 μL/well dispensed into 96 well plates using a programmable 8-channel peristaltic pump, giving 1000-4000 cells/well, leaving column 12 blank. The plates are returned to the incubator for 24 hours to allow the cells to re-attach.
The compounds being tested are prepared at 10 mM in DMSO. Aliquots (24 μL) are diluted into 1.2 mL culture medium giving 200 μM, and 10 serial dilutions of 3× performed by transferring 80 μL to 160 μL. Aliquots (100 μL) of each dilution are added to the wells, using an 8-channel pipettor, thus performing a final further 2× dilution, and giving doses ranging from 100 μM to 0.005 μM. Column 11 receives plain culture medium only. Each compound is tested in quadruplicate, each replicate being the average of four wells.
After a further 5 days growth, the plates are emptied, and the cells are fixed in 10% trichloroacteic acid for 30 minutes at 4° C. After thorough rinsing in running tap water, the plates are dried, and stained by adding 50 μL of a solution of 0.1% sulphorhodamine-B in 1% acetic acid, for 10 minutes at room temperature. The stain is poured out and the plates thoroughly rinsed under a stream of 1% acetic acid, thus removing unbound stain, and dried. The bound stain is taken into solution by addition of 100 μL Tris buffer pH 8, followed by 10 minutes on a plate-shaker (approximately 500 rpm). The absorbance at 540 nm in each well (being proportional to the number of cells present) is determined using a plate reader.
After averaging the blank values in column 12 this was subtracted from all values, and results expressed as a percentage of the untreated value (column 11). […] The GI50 generated by this procedure is the concentration of the drug that produces a percentage control A540 midway between the saturation, and zero-effect plateaus.

[2] = system: SW620 human colorectal carcinoma cells (mutant RAS) xenograft; experiment: Xenograft study, mutant RAS SW620; type: in vivo, mice; conditions: for Effect on tumour volume as compared to the control (in words) / Factor of tumour volume reduction as compared to the control: SW620 xenograft; for Factor of tumour volume reduction as compared to the control: over the timescale of the study; for Ratio of: Tumour Volume (Treatment)/Tumour Volume (Control) (mutant RAS SW620 xenograft): athymic mice, gavage once daily for 24 doses
Method: Biological Methods—Xenograft Studies
SW620 human colorectal carcinoma cells (mutant RAS, 7×10^7) or A375M human melanoma cells (mutant BRAF, 10^7) were inoculated sub-cutaneously in suspension (0.2 mL) into the right flank of female Crl:CD1-Foxn1nu athymic mice. Groups were assigned to treatment following stratified allocation of tumour volumes. Treatment with test compound began between days 11-14 post-cell administration. For gavage, a suspension (DMSO:water, 1:19, v/v at 10 m L/kg) was administered. Control animals received a similar dosage of vehicle (DMSO:water, 1:19, v/v). Treatment with test compound was continued once daily for 24 doses.

GI50 [1]	Compound	Effect on tumour volume as compared to the control (in words) [2]	Factor of tumour volume reduction as compared to the control [2]	Ratio of: Tumour Volume (Treatment)/Tumour Volume (Control) (mutant RAS SW620 xenograft) [2]
138 nM	Cn1c(=O)[nH]c2nccc(Oc3ccc(NC(=O)Nc4cc(C(C)(C)C)nn4-c4ccccc4)c(F)c3)c21 [AA-01, 1-(3-Tert-butyl-1-phenyl-1H-pyrazol-5-yl)-3-(2-fluoro-4-(1-N-methyl-2-oxo-2,3-dihydro-1H-imidazo[4,5-b]pyridin-7-yloxy)phenyl)urea]	statistically significant efficacy	about 3	0.34
52 nM	Cn1c(=O)[nH]c2nccc(Oc3ccc(NC(=O)Nc4cc(C(C)(C)C)nn4-c4ccccc4)c4ccccc34)c21 [BB-01, 1-(3-Tert-butyl-1-phenyl-1H-pyrazol-5-yl)-3-(4-(1-methyl-2-oxo-2,3-dihydro-1H-imidazo[4,5-b]pyridin-7-yloxy)naphthalen-1-yl)urea]	–	–	–
101 nM	Cc1ccc(-n2nc(C(C)(C)C)cc2NC(=O)Nc2ccc(Oc3ccnc4[nH]c(=O)n(C)c34)c3ccccc23)cc1 [BB-02, 1-(1-N-p-tolyl-3-tert-butyl-pyrazol-5-yl)-3-(4-(2-oxo-2,3-dihydro-1-N-methyl-1H-imidazo[4,5-b]pyridin-7-yl-oxy)naphthalen-1-yl)urea]	statistically significant efficacy	about 1.5	0.66
1130 nM	CC(C)(C)c1cc(NC(=O)Nc2ccc(Oc3ccnc4[nH]c(=O)[nH]c34)cc2)n(-c2ccccc2)n1 [XX-01, 1-(5-Tert-butyl-2-phenyl-2H-pyrazol-3-yl)-3-[4-(2-oxo-2,3-dihydro-1H-imidazo[4,5-b]pyridin-7-yloxy)-phenyl]-urea]	relatively little effect	–	>1
250 nM	Cc1ccc(-n2nc(C(C)(C)C)cc2NC(=O)Nc2ccc(Oc3ccnc4[nH]c(=O)n(C)c34)cc2)cc1 [XX-02, 1-(1-N-p-tolyl-3-tert-butyl-pyrazol-5-yl)-3-(4-(2-oxo-2,3-dihydro-1-N-methyl-1H-imidazo[4,5-b]pyridin-7-yl-oxy)phenyl)urea]	relatively little effect	–	0.95
247 nM	Cn1c(=O)n(C)c2c(Oc3ccc(NC(=O)Nc4cc(C(C)(C)C)nn4-c4ccccc4)c(F)c3)ccnc21 [XX-03, 1-(3-Tert-butyl-1-phenyl-1H-pyrazol-5-yl)-3-(4-(1,3-dimethyl-2-oxo-2,3-dihydro-1H-imidazo[4,5-b]pyridin-7-yloxy)-2-fluorophenyl)urea]	relatively little effect	–	0.97
307 nM	CC(C)(C)c1cc(NC(=O)Nc2ccc(Oc3ccnc4[nH]c(=O)[nH]c34)cc2)n(-c2ccc(F)cc2)n1 [XX-04, 1-[5-tert-Butyl-2-(4-fluoro-phenyl)-2H-pyrazol-3-yl]-3-[4-(2-oxo-2,3-dihydro-1H-imidazo[4,5-b]pyridin-7-yloxy)-phenyl]urea]	relatively little effect	–	0.87
